Source: the supplement of paper PMC13380429

Columns and labels:
Conditions in all cases: 72 h
Caco-2 [1] = assay: relative viability EC50 (midpoint between 100% and the lowest measured viability); higher = less toxic
Vero E6 [2] = assay: as above
HepG2 [3] = assay: as above
U2OS [4] = assay: as above
Calu-3 [5] = assay: as above
Caco-2 [6] = assay: drug sensitivity score (DSS) for viability; higher = more toxic; extreme values may be limits of the assay
Vero E6 [7] = assay: as above
HepG2 [8] = assay: as above
U2OS [9] = assay: as above
Calu-3 [10] = assay: as above
Caco-2 [11] = assay: cell viability relative to DMSO; higher = less toxic
Vero E6 [12] = assay: as above
HepG2 [13] = assay: as above
U2OS [14] = assay: as above
Calu-3 [15] = assay: as above

Row | SMILES | relative viability EC50 (Caco-2 [1]) | relative viability EC50 (Vero E6 [2]) | relative viability EC50 (HepG2 [3]) | relative viability EC50 (U2OS [4]) | relative viability EC50 (Calu-3 [5]) | drug sensitivity score (Caco-2 [6]) | drug sensitivity score (Vero E6 [7]) | drug sensitivity score (HepG2 [8]) | drug sensitivity score (U2OS [9]) | drug sensitivity score (Calu-3 [10]) | cell viability (Caco-2 [11]; 1 nM) | cell viability (Caco-2 [11]; 10 nM) | cell viability (Caco-2 [11]; 100 nM) | cell viability (Caco-2 [11]; 1000 nM) | cell viability (Caco-2 [11]; 10000 nM) | cell viability (Vero E6 [12]; 1 nM) | cell viability (Vero E6 [12]; 10 nM) | cell viability (Vero E6 [12]; 100 nM) | cell viability (Vero E6 [12]; 1000 nM) | cell viability (Vero E6 [12]; 10000 nM) | cell viability (HepG2 [13]; 1 nM) | cell viability (HepG2 [13]; 10 nM) | cell viability (HepG2 [13]; 100 nM) | cell viability (HepG2 [13]; 1000 nM) | cell viability (HepG2 [13]; 10000 nM) | cell viability (U2OS [14]; 1 nM) | cell viability (U2OS [14]; 10 nM) | cell viability (U2OS [14]; 100 nM) | cell viability (U2OS [14]; 1000 nM) | cell viability (U2OS [14]; 10000 nM) | cell viability (Calu-3 [15]; 1 nM) | cell viability (Calu-3 [15]; 10 nM) | cell viability (Calu-3 [15]; 100 nM) | cell viability (Calu-3 [15]; 1000 nM) | cell viability (Calu-3 [15]; 10000 nM)
1 | C/C(=N\NC(=O)C(NC(=O)c1ccccc1)c1n[nH]c(=O)c2ccccc12)c1cccc(Br)c1 (stereo not given) | > 10 µM | > 10 µM | > 10 µM | > 10 µM | > 10 µM | 0 | 0 | 0 | 0 | 0 | 101% | 102% | 106% | 95.8% | 100% | 88.3% | 97.9% | 97.4% | 100% | 104% | 97.7% | 94.2% | 98.1% | 95.4% | 106% | 99.5% | 97% | 100% | 102% | 100% | 95.7% | 113% | 100% | 107% | 108%
2 | CC(C)c1c2cc(-c3ccnc(N[C@H]4CC[C@H](NC5CCOCC5)CC4)n3)ccc2nn1C | 0.589 µM | 2 µM | 0.18 µM | 0.851 µM | 0.719 µM | 9.6 | 7.6 | 19.1 | 12 | 7.7 | 94.6% | 96.6% | 94.8% | 53.6% | 31.3% | 93.8% | 96.7% | 88% | 86% | 4.7% | 98.9% | 101% | 83.2% | 10.1% | 9.8% | 99% | 95% | 99.8% | 42.8% | 4.6% | 105% | 107% | 108% | 60.3% | 43.3%
3 | CC1CCN(CC[C@H]2CCCN2S(=O)(=O)c2cccc(O)c2)CC1 | > 10 µM | > 10 µM | > 10 µM | > 10 µM | > 10 µM | 0 | 0 | 0 | 0 | 0 | 90.4% | 86.5% | 96.1% | 91.5% | 102% | 100% | 93.5% | 96.8% | 93.8% | 105% | 91.9% | 98.1% | 103% | 96.7% | 101% | 94.3% | 101% | 93.4% | 104% | 101% | 90.1% | 94.8% | 92.3% | 100% | 105%
4 | CCOC(=O)Nc1ccc(NCc2c(C)cc(C)cc2C)cc1N | > 10 µM | > 10 µM | > 10 µM | > 10 µM | > 10 µM | 0 | 0 | 0 | 0 | 0 | 101% | 92.6% | 101% | 97.4% | 99% | 99.4% | 96.7% | 90.3% | 93.3% | 99.7% | 99.5% | 95.6% | 96.5% | 92.8% | 100% | 95.9% | 103% | 98.9% | 103% | 93.1% | 110% | 110% | 97.3% | 104% | 96.8%
5 | CCS(=O)(=O)N1CCN(c2ccc(Nc3ncc(C(N)=O)c(NC4CC4)n3)cc2)CC1 | > 10 µM | > 10 µM | > 10 µM | 2.04 µM | > 10 µM | 0 | 0.3 | 4 | 5.7 | 0 | 99.6% | 95.4% | 91.9% | 86.8% | 99.1% | 97.4% | 94.8% | 99.5% | 85.6% | 89.6% | 97.6% | 94.3% | 97.3% | 76.3% | 79.1% | 95.9% | 103% | 96.4% | 89.8% | 27.4% | 92.1% | 111% | 110% | 116% | 128%
6 | CCc1c(C(=O)NCCc2ccc(N3CCCCC3)cc2)[nH]c2ccc(Cl)cc12 | > 10 µM | > 10 µM | > 10 µM | > 10 µM | > 10 µM | 0 | 0 | 0 | 0 | 0 | 98.7% | 94% | 95.2% | 90.6% | 91% | 97.6% | 96.4% | 105% | 100% | 96% | 97.4% | 107% | 92.3% | 105% | 99.4% | 98% | 93.9% | 98.8% | 95.2% | 98.6% | 95.8% | 97.5% | 93.4% | 100% | 101%
7 | CCc1cc(O)c(Oc2ccc(C(N)=O)cc2F)cc1F | > 10 µM | > 10 µM | > 10 µM | > 10 µM | > 10 µM | 0 | 0 | 0 | 0 | 0 | 107% | 99% | 104% | 97.9% | 101% | 102% | 98.2% | 99.8% | 104% | 100% | 110% | 94.1% | 93% | 103% | 97.4% | 104% | 99.9% | 102% | 102% | 102% | 106% | 97.8% | 95.3% | 98.6% | 89.3%
8 | CN(C)C(=O)n1nnnc1Cc1ccc(-c2ccccc2)cc1 | 3.62 µM | 3.32 µM | 3.19 µM | 3.44 µM | 3.91 µM | 2.8 | 3.7 | 3 | 4.5 | 2.3 | 106% | 106% | 100% | 106% | 40.1% | 107% | 106% | 103% | 102% | 29.1% | 125% | 108% | 110% | 100% | 43.3% | 102% | 105% | 102% | 104% | 13.6% | 102% | 98% | 95.2% | 111% | 44.9%
9 | COC(=O)c1cnn(-c2ccc(F)cc2F)c1/C=N/NC(=S)NC(C)(C)C | > 10 µM | > 10 µM | > 10 µM | > 10 µM | > 10 µM | 0 | 0 | 0 | 0 | 0.3 | 102% | 90.6% | 102% | 105% | 93.9% | 106% | 101% | 95.9% | 96.1% | 98.8% | 112% | 107% | 98.4% | 94.3% | 105% | 98.6% | 98.3% | 104% | 98% | 103% | 101% | 101% | 97.4% | 89.1% | 89.6%
10 | COc1cc(N)c(Cl)cc1C(=O)OCCN1CCCCC1 | > 10 µM | > 10 µM | > 10 µM | > 10 µM | > 10 µM | 0 | 0 | 0 | 0 | 0 | 88.3% | 97.6% | 86% | 100% | 110% | 96.3% | 97.3% | 98.7% | 99.3% | 99.5% | 112% | 96.9% | 106% | 94.9% | 103% | 93.9% | 99% | 95.5% | 100% | 108% | 93.8% | 108% | 102% | 103% | 102%
11 | COc1ccc(Br)cc1S(=O)(=O)NC(=O)/C=C/c1ccccc1Cc1ccc2ccccc2c1 | > 10 µM | > 10 µM | > 10 µM | > 10 µM | > 10 µM | 0.1 | 0 | 0 | 0 | 1.7 | 104% | 94% | 99.1% | 97.8% | 87.5% | 96% | 98.6% | 95.3% | 90.8% | 101% | 96.4% | 96.5% | 95.8% | 98.9% | 102% | 99.9% | 98.3% | 94.4% | 98.9% | 95.8% | 94.2% | 106% | 88% | 86.5% | 97.9%
12 | COc1ccc(CN2C(=O)C(=O)c3cc(OC(F)(F)F)ccc32)cc1 | 1.66 µM | 1.75 µM | 3.43 µM | 0.374 µM | 1.43 µM | 5.4 | 6.2 | 2.9 | 14.6 | 5.7 | 90.2% | 100% | 89.8% | 85.5% | 38.8% | 107% | 107% | 103% | 86% | 28.8% | 97.7% | 108% | 109% | 103% | 41.8% | 99% | 99.7% | 92.8% | 25.8% | 13.4% | 98.3% | 96.7% | 110% | 83% | 41.7%
13 | Cc1cc(-c2cc(O)ccc2Cl)cc2nnc(Nc3ccc(OCCN4CCCC4)cc3)nc12 | 1.85 µM | 2.69 µM | 2.92 µM | 1.74 µM | 2.67 µM | 8.4 | 6.4 | 6 | 8.7 | 6.5 | 94% | 94.7% | 101% | 82.5% | 0.3% | 97.8% | 100% | 96.3% | 94% | 0% | 94.5% | 97.3% | 106% | 96.6% | 0% | 104% | 104% | 106% | 80% | 0% | 100% | 94.8% | 101% | 93.8% | 0.1%
14 | Cc1cccc(Oc2nc3c(C)cccn3c(=O)c2/C=C(\C#N)c2nc3ccccc3s2)c1 | > 10 µM | > 10 µM | > 10 µM | > 10 µM | > 10 µM | 0 | 0 | 0 | 0 | 0 | 93.1% | 98.3% | 98.3% | 94% | 98.6% | 103% | 95.5% | 99.4% | 91.4% | 106% | 100% | 90.2% | 101% | 94.6% | 100% | 95.2% | 99.1% | 96% | 102% | 106% | 97% | 94.1% | 98.6% | 102% | 112%
